`*/C=C(/*)C(CCCCC)[Si](C)(C)C` (repeat unit) yielded a glass transition temperature of 170.00 °C.

`*/C=C(\C#N)C(=O)NC1CCCCC1NC(=O)/C(C#N)=C/c1ccc(/C=C/c2ccc(N(CC)Cc3ccccc3CN(CC)c3ccc(/C=C/c4ccc(*)s4)cc3)cc2)s1` (repeat unit) yielded a glass transition temperature of 195.00 °C.

The compound `*CC(=O)Nc1ccc(C2(c3ccc(NC(=O)Cn4c(=O)c5cc6c(=O)n(*)c(=O)c6cc5c4=O)cc3)c3ccccc3-c3ccccc32)cc1` (repeat unit) came in with a glass transition temperature of 350.00 °C.

As to `*CCCCCCCCCCCOC(=O)Nc1ccc(NC(=O)OCCCCCCCCCCCOc2ccc(-c3ccc(O*)cc3)cc2)c(C)c1` (repeat unit), the glass transition temperature came to 77.00 °C.

Regarding `*CCCCCCCCOC(=O)Nc1ccc(NC(=O)OCCCCCCCCOc2ccc(-c3ccc(O*)cc3)cc2)c(C)c1` (repeat unit), the glass transition temperature is 81.00 °C.

`*CCCCCCOC(=O)Nc1ccc(C)c(NC(=O)O*)c1` (repeat unit): the glass transition temperature came out at 32.00 °C.

As for `*CCCCCCOP(=O)(/N=N/c1ccc(-c2ccc(/N=N/P(=O)(O*)OC)cc2)cc1)OC` (repeat unit), the glass transition temperature is 37.00 °C.

For `*CCCCCCOP(=O)(/N=N/c1ccc(Oc2ccc(/N=N/P(=O)(O*)OC)cc2)cc1)OC` (repeat unit), the glass transition temperature amounted to 25.00 °C.

The compound `*CCN(CCOC(=O)c1ccc(C(=O)O*)c(OCCC)c1)c1ccc(C=C(C#N)C#N)cc1` (repeat unit) displayed a glass transition temperature of 94.00 °C.

Turning to `*CCOC(=O)c1cc(C(=O)O*)cc(C(C)(C)C)c1` (repeat unit), the glass transition temperature amounted to 94.00 °C.

As to `*CCOCCOC(=O)C(C)C(=O)O*` (repeat unit), the glass transition temperature was -29.00 °C.

For `*CCOCCOC(=O)C(CCC)C(=O)O*` (repeat unit), the glass transition temperature is -38.00 °C.

As to `*CCOCCOC(=O)C(CCCCC)C(=O)O*` (repeat unit), the glass transition temperature is -47.00 °C.

In the case of `*CCOP(=O)(/N=N/c1ccc(-c2ccc(/N=N/P(=O)(O*)OCC)cc2)cc1)OCC` (repeat unit), the glass transition temperature stood at 43.00 °C.

Compound `*CCOP(=O)(/N=N/c1ccc(C(=O)c2ccc(/N=N/P(=O)(O*)OCC)cc2)cc1)OCC` (repeat unit) came in with a glass transition temperature of 33.00 °C.

Compound `*Cc1ccccc1CN(CC)c1ccc(/C=C/c2ccc(/C=C(\C#N)C(=O)NC3CCCCC3NC(=O)/C(C#N)=C/c3ccc(/C=C/c4ccc(N(*)CC)cc4)cc3)cc2)cc1` (repeat unit) gave a glass transition temperature of 201.00 °C.

On to `*Cc1ccccc1[Si](*)(C)C` (repeat unit), for which the glass transition temperature came to 48.00 °C.

Regarding `*Cc1ccccc1[Si](*)(C)c1ccccc1` (repeat unit), the glass transition temperature amounted to 93.80 °C.

Turning to `*Cc1ccccc1[Si](*)(c1ccccc1)c1ccccc1` (repeat unit), the glass transition temperature stood at 122.00 °C.

As for `*N(C)[Si](*)(C)C` (repeat unit), the glass transition temperature is -20.00 °C.

In the case of `*N(C)[Si](C)(C=C)N(C)[Si](*)(C)C` (repeat unit), the glass transition temperature was -42.00 °C.

Regarding `*N=P(*)(C)CCCC` (repeat unit), the glass transition temperature was -51.00 °C.

For `*N=P(*)(CC1COCCOCCOCCO1)OCC1COCCOCCOCCO1` (repeat unit), the glass transition temperature was -40.00 °C.

With `*Nc1cc([N+](=O)[O-])c(NC(=O)CCCCCCCCCCCCC(*)=O)cc1/C=C/c1ccc(N(C)C)cc1` (repeat unit), the glass transition temperature amounted to 125.00 °C.

Compound `*OC(=O)C(C)NC(=O)CCCCC(=O)NC(C)C(=O)OC1COC2C(*)COC12` (repeat unit) came in with a glass transition temperature of 56.00 °C.

Take `*OC(=O)C(CC(C)C)NC(=O)CCCCCCCCC(=O)NC(CC(C)C)C(=O)OC1COC2C(*)COC12` (repeat unit): the glass transition temperature was 89.00 °C.

In turn, `*OC(=O)C(CCSC)NC(=O)CCCCC(=O)NC(CCSC)C(=O)OC1COC2C(*)COC12` (repeat unit) showed a glass transition temperature of 71.00 °C.

`*Oc1ccc(-c2ccc(OC(=O)c3cc(OCCCCCC)c(C(*)=O)cc3OCCCCCC)cc2)cc1` (repeat unit) registered a glass transition temperature of 113.00 °C.

`*Oc1ccc(CC(C#N)(C#N)Cc2ccc(*)cc2)cc1` (repeat unit): the glass transition temperature came out at 147.00 °C.

Consider `*Oc1ccc(CC(NC(=O)CCc2ccc(OC(=O)CCCCC(*)=O)cc2)C(=O)OCCCC)cc1` (repeat unit), for which the glass transition temperature amounted to 46.00 °C.

`*Oc1ccc(CC(NC(=O)CCc2ccc(OC(=O)CCCCC(*)=O)cc2)C(=O)OCCCCCC)cc1` (repeat unit) returned a glass transition temperature of 37.73 °C.

`*Oc1ccc(CC(NC(=O)CCc2ccc(OC(=O)CCCCC(*)=O)cc2)C(=O)OCCCCCCCC)cc1` (repeat unit): the glass transition temperature turned out to be 28.00 °C.

For `*Oc1ccc(CC(NC(=O)CCc2ccc(OC(=O)CCCCC(*)=O)cc2)C(=O)OCCCCCCCCCCCC)cc1` (repeat unit), the glass transition temperature came out at 22.00 °C.

On to `*Oc1ccc(CC(NC(=O)CCc2ccc(OC(=O)CCCCC(*)=O)cc2)C(=O)OCCOCCOCC)cc1` (repeat unit), for which the glass transition temperature was determined as 15.00 °C.

For `*Oc1ccc(CC(NC(=O)CCc2ccc(OC(=O)CCCCCCC(*)=O)cc2)C(=O)OC(C)C)cc1` (repeat unit), the glass transition temperature came out at 46.00 °C.

`*Oc1ccc(CC(NC(=O)CCc2ccc(OC(=O)CCCCCCC(*)=O)cc2)C(=O)OC)cc1` (repeat unit) yielded a glass transition temperature of 55.50 °C.

As for `*Oc1ccc(CC(NC(=O)CCc2ccc(OC(=O)CCCCCCC(*)=O)cc2)C(=O)OCC)cc1` (repeat unit), the glass transition temperature came to 50.00 °C.

In the case of `*Oc1ccc(CC(NC(=O)CCc2ccc(OC(=O)CCCCCCC(*)=O)cc2)C(=O)OCCCC)cc1` (repeat unit), the glass transition temperature is 37.00 °C.

Consider `*Oc1ccc(CC(NC(=O)CCc2ccc(OC(=O)CCCCCCCCC(*)=O)cc2)C(=O)OC(C)CC)cc1` (repeat unit), for which the glass transition temperature is 36.00 °C.

As for `*Oc1ccc(CC(NC(=O)CCc2ccc(OC(=O)CCCCCCCCC(*)=O)cc2)C(=O)OC)cc1` (repeat unit), the glass transition temperature came to 47.00 °C.

Regarding `*Oc1ccc(CC(NC(=O)CCc2ccc(OC(=O)CCCCCCCCC(*)=O)cc2)C(=O)OCC)cc1` (repeat unit), the glass transition temperature worked out at 44.00 °C.

For the compound `*Oc1ccc(CC(NC(=O)CCc2ccc(OC(=O)CCCCCCCCC(*)=O)cc2)C(=O)OCCCC)cc1` (repeat unit), the glass transition temperature was found to be 30.00 °C.

On to `*Oc1ccc(CC(NC(=O)CCc2ccc(OC(=O)CCCCCCCCC(*)=O)cc2)C(=O)OCCCCCC)cc1` (repeat unit), for which the glass transition temperature amounted to 22.00 °C.

For the compound `*Oc1ccc(CC(NC(=O)CCc2ccc(OC(=O)CCCCCCCCC(*)=O)cc2)C(=O)OCCCCCCCCCCCC)cc1` (repeat unit), the glass transition temperature came to 12.50 °C.

`*Oc1ccc(CC(NC(=O)CCc2ccc(OC(=O)COCC(*)=O)cc2)C(=O)OC)cc1` (repeat unit) displayed a glass transition temperature of 82.00 °C.

`*Oc1ccc(CC(NC(=O)CCc2ccc(OC(=O)COCC(*)=O)cc2)C(=O)OCC(C)C)cc1` (repeat unit) displayed a glass transition temperature of 72.00 °C.

Compound `*Oc1ccc(CC(NC(=O)CCc2ccc(OC(=O)COCC(*)=O)cc2)C(=O)OCCCC)cc1` (repeat unit) displayed a glass transition temperature of 64.00 °C.

`*Oc1ccc(CC(NC(=O)CCc2ccc(OC(=O)COCC(*)=O)cc2)C(=O)OCCCCCC)cc1` (repeat unit) came in with a glass transition temperature of 45.00 °C.

Compound `*Oc1ccc(CC(NC(=O)CCc2ccc(OC(=O)COCC(*)=O)cc2)C(=O)OCCCCCCCC)cc1` (repeat unit) had a glass transition temperature of 40.00 °C.

`*Oc1ccc(CC(NC(=O)CCc2ccc(OC(=O)COCC(*)=O)cc2)C(=O)OCCOCCOCC)cc1` (repeat unit): the glass transition temperature was 27.00 °C.

For the compound `*Oc1ccc(CC(NC(=O)CCc2ccc(OC(=O)COCCOCC(*)=O)cc2)C(=O)OCCCCCCCC)cc1` (repeat unit), the glass transition temperature stood at 16.00 °C.

On to `*Oc1ccc(CC(NC(=O)CCc2ccc(OC(=O)COCCOCC(*)=O)cc2)C(=O)OCCOCCOCC)cc1` (repeat unit), for which the glass transition temperature was found to be 18.00 °C.

Regarding `*Oc1ccc(CC(NC(=O)Cc2ccc(OC(=O)CCCCCCCCC(*)=O)cc2)C(=O)OCC)cc1` (repeat unit), the glass transition temperature came to 43.00 °C.

In turn, `*Oc1ccc(CC(NC(=O)Cc2ccc(OC(=O)CCCCCCCCC(*)=O)cc2)C(=O)OCCCCCC)cc1` (repeat unit) registered a glass transition temperature of 23.00 °C.

In turn, `*Oc1ccc(CC(NC(=O)Cc2ccc(OC(=O)CCCCCCCCC(*)=O)cc2)C(=O)OCCCCCCCC)cc1` (repeat unit) registered a glass transition temperature of 16.00 °C.

In turn, `*Oc1ccc(CC(NC(=O)Cc2ccc(OC(=O)COCC(*)=O)cc2)C(=O)OCCCCCC)cc1` (repeat unit) returned a glass transition temperature of 46.00 °C.

`*Oc1ccc(CC(NC(=O)Cc2ccc(OC(=O)COCC(*)=O)cc2)C(=O)OCCCCCCCC)cc1` (repeat unit) displayed a glass transition temperature of 51.00 °C.

The compound `*Oc1ccc(CC2(Cc3ccc(*)cc3)c3ccccc3-c3ccccc32)cc1` (repeat unit) came in with a glass transition temperature of 138.00 °C.

In turn, `*Oc1ccc(NC(=O)NC2CC(C)(C)CC(C)(CNC(=O)Nc3ccc(*)c(-c4ccc(Oc5ccccc5)cc4)c3)C2)cc1-c1ccc(Oc2ccccc2)cc1` (repeat unit) displayed a glass transition temperature of 281.00 °C.

`*Oc1ccc(NC(=O)NC2CC(C)(C)CC(C)(CNC(=O)Nc3ccc(*)cc3)C2)cc1` (repeat unit): the glass transition temperature amounted to 274.00 °C.

In the case of `*Oc1ccc(NC(=O)Nc2cc(NC(=O)Nc3ccc(*)c(-c4ccc(Oc5ccccc5)cc4)c3)ccc2C)cc1-c1ccc(Oc2ccccc2)cc1` (repeat unit), the glass transition temperature is 279.00 °C.

Consider `*Oc1ccc(NC(=O)Nc2cc(NC(=O)Nc3ccc(*)cc3)ccc2C)cc1` (repeat unit), for which the glass transition temperature was 269.00 °C.

Compound `*c1ccc(/C=N/c2cccc(/N=C/c3ccc(-c4ccc(*)s4)cc3)c2)cc1` (repeat unit) had a glass transition temperature of 150.00 °C.
